# In article PMC11345830, “Exploration of Hydrazide-Based HDAC8 PROTACs for the Treatment of Hematological Malignancies and Solid Tumors” (Journal of Medicinal Chemistry, 2024):
# Read-outs that look alike come from different tables or passages of the source.
# Experiments:
# [1] = tested on: HEL cells; assay: Cell viability MTS assay, HEL; type: cell-based; settings: ratio of IC50 values
# Protocol: MTS assay was used to measure the cell viability. For single treatment, Jurkat, THP-1 and HEL (8000 cells/well), HCT116 and A549 (2000 cells/well) were seeded in 96-well plates in 100 μL complete medium. After overnight incubation, 50 μL of media containing various concentrations of compounds or the vehicle were added to each well. For cotreatment, cells were seeded in 96-well plates in 50 μL complete medium. After overnight incubation, 50 μL of Z-VAD-FMK, Nec-1, Fer-1, CQ, and other indicated compounds were added to each well. One hour later, 50 μL of media containing various concentrations of compounds were added to each well. After 72 h of treatment, 20 μL of CellTiter 96 AQueous One Solution reagent (Promega, Madison, USA) was added to each well according to manufacturer’s protocol. Plates were incubated at 37 °C for 1–2 h. The absorbance was determined at a wavelength of 490 nm using a Synergy H1 plate reader (Biotek, Winooski, VT, USA).
# [2] = molecular target: T1, HDAC7 (Homo sapiens, UniProt Q8WUI4); assay: HDAC7 level in Jurkat cells, Western blot; type: cell-based; settings: 6 h
# T1 construct: endogenous in cells; host or cells: Jurkat
# T1 sequence (Q8WUI4 1-952): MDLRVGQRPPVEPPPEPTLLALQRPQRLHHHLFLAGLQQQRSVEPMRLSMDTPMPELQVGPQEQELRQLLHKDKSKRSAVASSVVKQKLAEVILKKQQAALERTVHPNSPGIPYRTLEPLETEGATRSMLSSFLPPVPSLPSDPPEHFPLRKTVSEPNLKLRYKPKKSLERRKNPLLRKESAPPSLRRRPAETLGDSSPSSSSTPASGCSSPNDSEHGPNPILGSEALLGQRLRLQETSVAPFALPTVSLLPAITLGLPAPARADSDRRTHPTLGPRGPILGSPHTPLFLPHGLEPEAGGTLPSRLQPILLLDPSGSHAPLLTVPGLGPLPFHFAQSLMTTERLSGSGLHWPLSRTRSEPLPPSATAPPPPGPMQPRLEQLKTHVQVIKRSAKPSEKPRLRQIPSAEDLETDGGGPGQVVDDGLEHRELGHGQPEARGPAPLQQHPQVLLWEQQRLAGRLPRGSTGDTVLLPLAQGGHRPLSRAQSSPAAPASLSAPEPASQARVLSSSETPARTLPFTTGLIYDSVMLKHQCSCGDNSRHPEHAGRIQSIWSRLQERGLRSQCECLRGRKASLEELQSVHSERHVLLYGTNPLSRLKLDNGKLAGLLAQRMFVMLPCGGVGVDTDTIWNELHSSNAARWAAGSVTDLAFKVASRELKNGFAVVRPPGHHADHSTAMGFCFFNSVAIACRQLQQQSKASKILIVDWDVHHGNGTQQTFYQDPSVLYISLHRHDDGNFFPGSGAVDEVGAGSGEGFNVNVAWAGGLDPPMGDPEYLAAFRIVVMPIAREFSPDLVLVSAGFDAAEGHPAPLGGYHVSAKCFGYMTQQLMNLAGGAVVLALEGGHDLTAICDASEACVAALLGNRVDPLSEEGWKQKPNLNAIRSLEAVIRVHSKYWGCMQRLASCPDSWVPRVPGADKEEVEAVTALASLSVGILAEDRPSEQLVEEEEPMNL
# [3] = molecular target: T2, IKZF1 (Homo sapiens, UniProt Q13422); assay: IKZF1 level in Jurkat cells, Western blot; type: cell-based; settings: 6 h
# T2 construct: endogenous in cells; host or cells: Jurkat
# T2 sequence (Q13422 whole entry): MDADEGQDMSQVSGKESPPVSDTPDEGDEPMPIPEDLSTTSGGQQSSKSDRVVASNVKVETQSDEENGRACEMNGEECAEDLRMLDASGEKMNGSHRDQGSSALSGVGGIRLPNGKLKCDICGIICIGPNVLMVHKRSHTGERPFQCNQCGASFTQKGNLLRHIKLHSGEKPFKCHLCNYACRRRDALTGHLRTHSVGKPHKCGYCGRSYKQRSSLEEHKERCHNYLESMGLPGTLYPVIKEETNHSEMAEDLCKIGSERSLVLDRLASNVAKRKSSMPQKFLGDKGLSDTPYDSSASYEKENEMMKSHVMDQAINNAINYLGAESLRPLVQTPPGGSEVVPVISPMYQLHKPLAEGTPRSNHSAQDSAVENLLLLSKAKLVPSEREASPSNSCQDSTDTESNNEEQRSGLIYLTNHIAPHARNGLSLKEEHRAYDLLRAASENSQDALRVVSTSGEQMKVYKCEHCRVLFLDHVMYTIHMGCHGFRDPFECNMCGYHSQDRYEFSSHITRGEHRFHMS
# [4] = molecular target: T3, GSPT1 (Homo sapiens, UniProt P15170); assay: GSPT1 level in Jurkat cells, Western blot; type: cell-based; settings: 6 h
# T3 construct: endogenous in cells; host or cells: Jurkat
# T3 sequence (P15170 whole entry): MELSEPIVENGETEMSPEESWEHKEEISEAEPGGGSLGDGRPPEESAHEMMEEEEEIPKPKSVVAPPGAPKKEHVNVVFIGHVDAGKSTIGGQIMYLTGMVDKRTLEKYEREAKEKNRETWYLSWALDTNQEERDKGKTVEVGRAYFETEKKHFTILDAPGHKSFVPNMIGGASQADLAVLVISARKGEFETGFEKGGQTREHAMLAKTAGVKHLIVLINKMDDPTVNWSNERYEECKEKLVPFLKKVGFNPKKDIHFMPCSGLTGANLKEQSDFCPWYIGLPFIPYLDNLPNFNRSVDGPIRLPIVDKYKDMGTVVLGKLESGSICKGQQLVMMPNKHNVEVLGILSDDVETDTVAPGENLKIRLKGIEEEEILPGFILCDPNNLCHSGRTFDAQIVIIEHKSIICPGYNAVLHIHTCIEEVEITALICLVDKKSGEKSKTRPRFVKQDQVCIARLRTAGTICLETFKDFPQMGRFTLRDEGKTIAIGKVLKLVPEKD
# [5] = tested on: acetyl-SMC3 (Ac-SMC3); assay: Ac-SMC3 level in Jurkat cells, Western blot; type: cell-based; settings: 6 h
# [6] = tested on: acetyl-histone H3 (Ac-HH3); assay: Ac-HH3 level in Jurkat cells, Western blot; type: cell-based; settings: 6 h
# [7] = tested on: acetyl-histone H3 (Ac-HH3); assay: Ac-HH3 level in HCT116 cells, Western blot; type: cell-based; settings: 6 h
# [8] = tested on: Jurkat cells; assay: Apoptosis assay (Annexin V-FITC/PI flow cytometry), Jurkat; type: cell-based; settings: 24 and 48 h
# Protocol: The cell apoptosis assay was performed using eBioscience Annexin V-FITC/PI Apoptosis Detection Kit (Thermo Fisher Scientific, Carlsbad, CA, USA). Jurkat cells (5 × 10^5) and HCT116 cells (3 × 10^5) were treated with different concentrations of test compounds for 24 or 48 h. Cells were harvested after incubation, washed twice in cold PBS, centrifuged, and resuspended in 1X annexin-binding buffer. According to the manufacturer’s instructions, cells were incubated with Annexin V and Propidium iodide (PI) sequentially. All samples were analyzed by NovoCyte Quanteon Flow Cytometer (Agilent Technologies, CA, USA).
# [9] = tested on: Jurkat cells; assay: Lipid peroxidation detection (BODIPY 581/591 C11), Jurkat; type: cell-based; settings: 10 μM, 24 h
# Protocol: (§1) Jurkat cells (5 × 10^5), HCT116 cells (3 × 10^5) and THP-1 cells (5 × 10^5) were seeded on 6-well plates. The next day, cells were treated with indicated concentrations of compounds for 24 or 48 h. Then, cells were stained with 1.3 μM of BODIPY 581/591 C11 (Invitrogen, D3861) for another 1 h at 37 °C. Later, cells were harvested and washed three times with ice-cold PBS, followed by resuspended in FACS buffer (1% BSA in PBS). Lipid peroxidation was determined by NovoCyte Quanteon Flow Cytometer (Agilent Technologies, CA, USA).
# [10] = tested on: HCT116 cells; assay: Lipid peroxidation detection (BODIPY 581/591 C11), HCT116; type: cell-based; settings: 24 h, low micromolar concentrations
# Protocol: as §1
# [11] = tested on: Jurkat cells; assay: Cell cycle analysis, Jurkat; type: cell-based; settings: 48 h, control group 43.5%
# Protocol: (§2) Jurkat cells (5 × 10^5) and HCT116 cells (3 × 10^5) were seeded on 6-well plates. The next day, cells were treated with indicated concentrations of compounds for 48 h. Cells were harvested after incubation, washed twice in cold PBS, centrifuged, and stained with a solution containing 20 μg/mL of Propidium iodide (PI) and 0.1% (v/v) Triton-X100 for 15 min at room temperature, followed by detection with NovoCyte Quanteon Flow Cytometer (Agilent Technologies, CA, USA).
# [12] = tested on: HCT116 cells; assay: Cell cycle analysis, HCT116; type: cell-based; settings: 48 h, control group 23.0%
# Protocol: as §2
# [13] = tested on: STAT3; settings: 24 h
# Excerpt: We also explored a potential by-stander effect of HDAC8 degradation. It has been reported that HDAC8 can form a corepressor complex with STAT3 and release of the HDAC8 corepressor complex can recruit p300, Sp3, and other factors that activate gene transcription in colon cancer HCT116 cells.[20]
compound,measurement,setting,value
"CCCCCCNNC(=O)c1ccc(CNC(=O)CN2CCC(c3ccc(NC4CCC(=O)NC4=O)cc3)CC2)cc1 (stereo not drawn) [Z16, 2-(4-(4-((2,6-Dioxopiperidin-3-yl)amino)phenyl)piperidin-1-yl)-N-(4-(2-hexylhydrazine-1-carbonyl)benzyl)acetamide]",less potent than SAHA against HEL cells,[1],about 10 fold
same,HDAC7 degradation (in words),[2],no obvious
same,intracellular level of IKZF1 (in words),[3],did not significantly affect
same,intracellular level of GSPT1 (in words),[4],did not significantly affect
same,concentration at which increased acetylation of SMC3 started,[5],around 10 nM
same,concentration leading to obvious increased Ac-SMC3,[5],0.01 µM
same,level of Ac-HH3 at 1 μM (in words),[6],significantly increase
same,concentration at which increased acetylation of histone H3 started,[7],40 nM
same,induction of apoptosis (in words),[8],neither Z16 nor SAHA could effectively induce apoptosis
same,lipid peroxidation induced,[9],over 40%
same,lipid peroxidation (in words),[10],induced lipid peroxidation in a dose-dependent manner
same,proportion of cells at G0/G1 phase,[11]; 0.13 μM,48.4%
same,proportion of cells at G0/G1 phase,[11]; 0.37 μM,52.2%
same,proportion of cells at G0/G1 phase,[11]; 1.1 μM,61%
same,proportion of cells at G0/G1 phase,[11]; 3.3 μM,68.2%
same,proportion of cells at G2/M phase,[12]; 0.13 μM,24.1%
same,proportion of cells at G2/M phase,[12]; 0.37 μM,26.4%
same,proportion of cells at G2/M phase,[12]; 1.1 μM,26.2%
same,proportion of cells at G2/M phase,[12]; 3.3 μM,38.8%
same,STAT3 degradation (in words),[13]; HCT116 cells,did not induce STAT3 degradation
same,STAT3 degradation (in words),[13]; Jurkat cells,did not induce STAT3 degradation
